The record followed here is patent US9505769B2 (ASCENEURON SA, priority 2013, dated 2016).

pEC50: −log10 of the molar value. Structures can show the parent of a compound that is named as a salt.

In one test the target is T1, human muscarinic acetylcholine M1 receptor (Homo sapiens, UniProt P11229).
T1 construct: expressed in transfected cells; host or cells: CHO-K1
T1 sequence (P11229 1-460): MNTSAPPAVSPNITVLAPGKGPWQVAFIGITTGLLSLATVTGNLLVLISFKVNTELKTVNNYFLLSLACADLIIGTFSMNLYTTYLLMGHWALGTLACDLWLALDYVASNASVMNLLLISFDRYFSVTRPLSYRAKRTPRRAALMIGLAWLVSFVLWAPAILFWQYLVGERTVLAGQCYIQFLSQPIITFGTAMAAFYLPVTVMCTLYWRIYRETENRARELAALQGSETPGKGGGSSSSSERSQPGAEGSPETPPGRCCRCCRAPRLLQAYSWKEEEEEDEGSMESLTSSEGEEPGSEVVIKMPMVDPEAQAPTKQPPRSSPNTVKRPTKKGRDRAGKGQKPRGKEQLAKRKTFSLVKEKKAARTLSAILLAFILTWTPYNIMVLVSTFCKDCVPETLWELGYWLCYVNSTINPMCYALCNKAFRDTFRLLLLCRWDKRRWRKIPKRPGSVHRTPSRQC
As to the kind of experiment: M1 PAM Assay (IP-One HTRF, IP1 accumulation in M1-CHO cells). Format: cell-based.
Conditions: not given
The method, then: Then diluted compounds (0.6% DMSO final concentration) are added together with EC20 of acetylcholine and incubated with the cells for 30 min at 37° C., 5% CO2.
CHO-K1 cells stably transfected with human muscarinic acetylcholine M1 receptor are cultured in Ham's F12 medium containing 10% heat inactivated fetal calf serum, 2 mM L-glutamine and Penicillin-Streptomycin grown in a humidified atmosphere at 5% CO2/95% air at 37° C.
In general terms: In TR-FRET formats the signal depends on donor and acceptor labels being close together.
In turn, `N#CCN1[C@@H]2CC[C@H]1C[C@@H](Oc1cc(F)ccc1C(=O)N1Cc3nn4cc(Cl)cnc4c3C1)C2` [Example 66, [(3endo)-3-{2[(3-chloro-7H-pyrrolo[3′,4′:3,4]pyrazolo[1,5-a]pyrimidin-8(9H)-yl)carbonyl]-5-fluorophenoxy}-8-azabicyclo[3.2.1]oct-8-yl]acetonitrile] showed a pEC50 of 6.00 to 6.70.

`CN1[C@@H]2CC[C@H]1C[C@@H](Oc1cc(F)ccc1C(=O)N1Cc3nn4cc(C5CC5)cnc4c3C1)C2` [Example 74, (3-cyclopropyl-7H-pyrrolo[3′,4′:3,4]pyrazolo[1,5-a]pyrimidin-8(9H)-yl)(4-fluoro-2-{[(3-endo)-8-methyl-8-azabicyclo[3.2.1]oct-3-yl]oxy}phenyl)methanone] showed a negative logarithm of the EC50 (pEC50) above 6.70.

The compound `COCCN1[C@@H]2CC[C@H]1C[C@@H](Oc1cc(F)ccc1C(=O)N1Cc3nn4cc(Cl)cnc4c3C1)C2` [Example 52, (3-chloro-7H-pyrrolo[3′,4′:3,4]pyrazolo[1,5-a]pyrimidin-8(9H)-yl)(4-fluoro-2-{[(3-endo)-8-(2-methoxyethyl)-8-azabicyclo[3.2.1]oct-3-yl]oxy}phenyl)methanone] gave a pEC50 of 6.00 to 6.70.

For the compound `CCN1[C@@H]2CC[C@H]1C[C@@H](Oc1cc(F)ccc1C(=O)N1Cc3nn4cc(Cl)cnc4c3C1)C2` [Example 63, (3-chloro-7H-pyrrolo[3′,4′:3,4]pyrazolo[1,5-a]pyrimidin-8(9H)-yl)(2-{[(3-endo)-8-ethyl-8-azabicyclo[3.2.1]oct-3-yl]oxy}-4-fluorophenyl)methanone], the pEC50 is above 6.70.

As for `Cc1nc2c3c(nn2c(C)c1Cl)CN(C(=O)c1ccc(F)cc1OC1CC2CC(F)C(C1)N2C)C3` (racemic) [Example 38, (3-chloro-2,4-dimethyl-7H-pyrrolo[3′,4′:3,4]pyrazolo[1,5-a]pyrimidin-8(9H)-yl)(4-fluoro-2-(((3-endo)-(6-endo)-6-fluoro-8-methyl-8-azabicyclo[3.2.1]octan-3-yl)oxy)phenyl)methanone], the pEC50 was above 6.70.

Regarding `CN1[C@@H]2CC[C@H]1C[C@@H](Oc1cc(F)ccc1C(=O)N1Cc3nn4cc(Cl)cnc4c3C1)C2` [Example 53, (3-chloro-7H-pyrrolo[3′,4′:3,4]pyrazolo[1,5-a]pyrimidin-8(9H)-yl)(4-fluoro-2-{[(3-endo)-8-methyl-8-azabicyclo[3.2.1]oct-3-yl]oxy}phenyl)methanone], the negative-log EC50 (pEC50) was above 6.70.

In turn, `Cc1nc2c3c(nn2c(C)c1Cl)CN(C(=O)c1ccc(F)cc1O[C@H]1C[C@H]2CC[C@@H](C1)N2CCF)C3` [Example 36, (3-chloro-2,4-dimethyl-7H-pyrrolo[3′,4′:3,4]pyrazolo[1,5-a]pyrimidin-8(9H)-yl)(4-fluoro-2-{[(3-endo)-8-(2-fluoroethyl)-8-azabicyclo[3.2.1]oct-3-yl]oxy}phenyl)methanone] showed a pEC50 above 6.70.

Staying with this test, now noted: CHO-K1 cells stably transfected with human M1 receptor; compounds added with EC20 of acetylcholine (25 nM), 30 min; intracellular IP1 by IP-One HTRF; read-out: M1 PAM EC50.
As for `Cc1nc2c3c(nn2c(C)c1Cl)CN(C(=O)c1ccc(F)cc1OCCN1CC[C@@H](F)C1)C3` [Example 62, (6-Chloro-5,7-dimethyl-1H,3H-2,4,7a,8-tetraaza-cyclopenta[a]inden-2-yl)-{4-fluoro-2-[2-((R)-3-fluoro-pyrrolidin-1-yl)-ethoxy]-phenyl}-methanone], the negative logarithm of the EC50 (pEC50) is 6.00 to 6.70.

In the case of `Cc1nc2c3c(nn2c(C)c1Cl)CN(C(=O)c1ccc(F)cc1O[C@H]1CN(C)C[C@@H]1O)C3` (racemic) [Example 45, (anti)-(6-Chloro-5,7-dimethyl-1H,3H-2,4,7a,8-tetraaza-cyclopenta[a]inden-2-yl)-[4-fluoro-2-(4-hydroxy-1-methyl-pyrrolidin-3-yloxy)-phenyl]-methanone], the negative-log EC50 (pEC50) was 6.00 to 6.70.

`Cc1nc2c3c(nn2c(C)c1Cl)CN(C(=O)c1ccc(F)cc1O[C@H]1CCNC[C@@H]1F)C3` (racemic) [Example 1]: the pEC50 was above 6.70.

Take `Cc1nc2c3c(nn2c(C)c1Cl)CN(C(=O)c1ccc(F)cc1OC1CC(N)C1)C3` (centres unmarked) [Example 61, [2-(3-Amino-cyclobutoxy)-4-fluoro-phenyl]-(6-chloro-5,7-dimethyl-1H,3H-2,4,7a,8-tetraaza-cyclopenta[a]inden-2-yl)-methanone, hydrochloride]: the negative-log EC50 (pEC50) was above 6.70.

Regarding `O=C(c1ccc(F)cc1OC1CCNCC1)N1Cc2nn3cc(Cl)cnc3c2C1` [Example 33, (3-chloro-7H-pyrrolo[3′,4′:3,4]pyrazolo[1,5-a]pyrimidin-8(9H)-yl)(4-fluoro-2-(piperidin-4-yloxy)phenyl)methanone hydrochloride], the pEC50 is 6.00 to 6.70.

With “(anti)-(6-Chloro-5-ethyl-7-methyl-1H,3H-2,4,7a,8-tetraaza-cyclopenta[a]inden-2-yl)-[2-(4-hydroxy-pyrrolidin-3-yl oxy)-phenyl]-methanone or (anti)-(6-Chloro-5-methyl-7-ethyl-1H,3H-2,4,7a,8-tetraaza-cyclopenta[a]inden-2-yl)-[2-(4-hydroxy-pyrrolidin-3-yl oxy)-phenyl]-methanone [Example 10]”, the pEC50 was 6.00 to 6.70.

For the compound `Cc1nc2c3c(nn2c(C)c1Cl)CN(C(=O)c1ccc(F)cc1OCc1cccnc1)C3` [Example 19, (6-Chloro-5,7-dimethyl-1H,3H-2,4,7a,8-tetraaza-cyclopenta[a]inden-2-yl)-[4-fluoro-2-(pyridin-3-ylmethoxy)-phenyl]-methanone], the negative logarithm of the EC50 (pEC50) is 5.52 to 6.00.

Turning to `Cc1nc2c3c(nn2c(C)c1Cl)CN(C(=O)c1ccccc1O[C@H]1CCC[C@@H]1O)C3` (racemic) [Example 8, (anti)-(6-Chloro-5,7-dimethyl-1H,3H-2,4,7a,8-tetraaza-cyclopenta[a]inden-2-yl)-[2-(2-hydroxy-cyclopentyloxy)-phenyl]-methanone], the negative logarithm of the EC50 (pEC50) is 6.00 to 6.70.

For `Cc1nc2c3c(nn2c(C)c1Cl)CN(C(=O)c1ccc(F)cc1OC[C@H]1CC(F)(F)CN1)C3` [Example 56, (6-Chloro-5,7-dimethyl-1H,3H-2,4,7a,8-tetraaza-cyclopenta[a]inden-2-yl)-[2-((R)-4,4-difluoro-pyrrolidin-2-ylmethoxy)-4-fluoro-phenyl]-methanone], the negative-log EC50 (pEC50) was above 6.70.

As to `Cc1nc2c3c(nn2c(C)c1Cl)CN(C(=O)c1ccc(F)cc1OCC1(N)CC1)C3` [Example 68, (2-((1-aminocyclopropyl)methoxy)-4-fluorophenyl)(3-chloro-2,4-dimethyl-7H-pyrrolo[3′,4′:3,4]pyrazolo[1,5-a]pyrimidin-8(9H)-yl)methanone], the negative-log EC50 (pEC50) was 5.52 to 6.00.

As for `Cc1nc2c3c(nn2c(C)c1Cl)CN(C(=O)c1ccccc1O[C@H]1CCCC[C@@H]1O)C3` (racemic) [Example 17, (anti)-(3-chloro-2,4-dimethyl-7H-pyrrolo[3′,4′:3,4]pyrazolo[1,5-a]pyrimidin-8(9H)-yl)(2-((2-hydroxycyclohexyl)oxy)phenyl)methanone], the pEC50 was 5.52 to 6.00.

`CN1CCC(Oc2cc(F)ccc2C(=O)N2Cc3nn4cc(Cl)cnc4c3C2)CC1` [Example 12, (3-chloro-7H-pyrrolo[3′,4′:3,4]pyrazolo[1,5-a]pyrimidin-8(9H)-yl)(4-fluoro-2-((1-methylpiperidin-4-yl)oxy)phenyl)methanone]: the negative logarithm of the EC50 (pEC50) is 6.00 to 6.70.

`Cc1nc2c3c(nn2c(C)c1Cl)CN(C(=O)c1ccc(F)cc1OC1CN(CCF)C1)C3` [Example 46, (3-chloro-2,4-dimethyl-7H-pyrrolo[3′,4′:3,4]pyrazolo[1,5-a]pyrimidin-8(9H)-yl)(4-fluoro-2-((1-(2-fluoroethyl)azetidin-3-yl)oxy)phenyl)methanone]: the pEC50 is 5.52 to 6.00.

For orientation: pEC50 means the negative decadic logarithm of the EC50, by convention in mol/L.
